# Assay results: patent publication US20240252440A1, “COMPOSITIONS, METHODS AND SYSTEMS FOR AEROSOL DRUG DELIVERY” (ASTRAZENECA PHARMACEUTICALS LP, priority 2021, published 2024)
# Test: Particle size distribution by laser diffraction
# Format: physicochemical
# Description: When referred to herein, the term “optical diameter” indicates the size of a particle as measured by the Fraunhofer diffraction mode using a laser diffraction particle size analyzer equipped with a dry powder dispenser (e.g., Sympatec GmbH, Clasthal-Zellerfeld, Germany).
# Suspending particles were manufactured by spray drying an emulsion of PFOB (perfluorooctyl bromide) and water stabilized by DSPC (1,2-Distearoyl-sn-Glycero-3-Phosphocholine). […] The particle size distribution of the suspending particles was determined by laser diffraction.
# Active agent particles formed of budesonide, 16,17-(butylidenebis(oxy))-11,21-dihydroxy-(11-β,16-α)-pregna-1,4-diene-3,20-dione, were formed by micronizing budesonide using a jet mill. The particle size distribution of the budesonide (BD) was determined by laser diffraction.
Molecule,optical diameter exhibited by 50% by volume of the particles,optical diameter exhibited by 90% by volume of the particles
albuterol sulfate,smaller than 1.5 μm,smaller than 3.3 μm
"C[N+]1(C)CCC(OC(=O)C(O)(c2ccccc2)C2CCCC2)C1.[Br-] (stereo not drawn) [glycopyrrolate, Pyrrolidinium, 3-((cyclopentylhydroxyphenylacetyl)oxy)-1,1-dimethyl-, bromide]",smaller than 2.1 μm,smaller than 5 μm
"COc1ccc(CC(C)NCC(O)c2ccc(O)c(NC=O)c2)cc1.O=C(O)/C=C/C(=O)O (racemic) [formoterol fumarate, (±)-2-hydroxy-5-[(1RS)-1-hydroxy-2-[[(1RS)-2-(4-methoxyphenyl)-1-methylethyl]-amino]ethyl]formanilide fumarate]",smaller than 1.6 μm,smaller than 3.9 μm
